Assay [1] deals with T1, Sm5HTR (Schistosoma mansoni, UniProt G4V5G4).
T1 construct: gene 5HT-1; full length, 463 residues, 52 kDa; pCI-neo; transiently transfected HEK 293 cells
T1 sequence (G4V5G4 1-463): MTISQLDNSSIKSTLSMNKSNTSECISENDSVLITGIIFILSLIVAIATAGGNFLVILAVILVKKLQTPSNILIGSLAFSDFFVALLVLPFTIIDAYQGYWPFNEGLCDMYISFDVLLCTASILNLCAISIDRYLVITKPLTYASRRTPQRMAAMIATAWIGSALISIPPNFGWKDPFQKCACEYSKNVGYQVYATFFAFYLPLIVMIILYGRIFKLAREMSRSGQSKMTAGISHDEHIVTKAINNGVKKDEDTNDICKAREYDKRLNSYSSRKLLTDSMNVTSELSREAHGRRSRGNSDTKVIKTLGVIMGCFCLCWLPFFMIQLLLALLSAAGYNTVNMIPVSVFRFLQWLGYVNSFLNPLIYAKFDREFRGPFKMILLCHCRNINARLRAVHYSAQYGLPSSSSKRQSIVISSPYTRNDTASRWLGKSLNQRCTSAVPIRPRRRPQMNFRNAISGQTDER
Description: cAMP fluorescent competitive immunoassay, transfected HEK […] cells. The following applies: 20 uM forskolin, IBMX pretreatment, 37 °C, 10 min. Type of assay: cell-based.

Assay [2] addresses T1, Sm5HTR. Described as above. Type of assay: cell-based.
[3] abbreviates: antagonist at 100 uM against 100 uM serotonin.

Each structure is given as a SMILES string.

For the molecule `O=C1CC2(CCCC2)CC(=O)N1CCCCN1CCN(c2ncccn2)CC1` [BUS, buspirone], in assay [1] (agonist at 100 uM), the “cAMP fluorescent competitive immunoassay, transfected HEK 293 cells” value (“cAMP fluorescent competitive immunoassay” for short) was “classical (i.e. mammalian) serotonergic agonists such as tryptamine, DPAT and buspiperone”.

Regarding `CN1CCC(=C2c3ccccc3C=Cc3ccccc32)CC1` [CPH, cyproheptadine], the “cAMP fluorescent competitive immunoassay” value in assay [1] (setting [3]) is recorded as “inhibited by co-application of common serotonergic antagonists such as cyproheptadine or mianserin”.

For `CCCN(CCC)C1CCc2cccc(O)c2C1` (stereo not drawn) [DPAT, 8-Hydroxy-DPAT], the “cAMP fluorescent competitive immunoassay” value in assay [1] (agonist at 100 uM) is “classical (i.e. mammalian) serotonergic agonists such as tryptamine, DPAT and buspiperone”.

In the case of `CN1CCN2c3ccccc3Cc3ccccc3C2C1` (stereo not drawn) [MIAN, mianserin], the “cAMP fluorescent competitive immunoassay” value in assay [1] (setting [3]) is “inhibited by co-application of common serotonergic antagonists such as cyproheptadine or mianserin”.

Take `NCCc1c[nH]c2ccccc12` [Trp, tryptamine]: the “cAMP fluorescent competitive immunoassay” value in assay [1] (agonist at 100 uM) was “classical (i.e. mammalian) serotonergic agonists such as tryptamine, DPAT and buspiperone”.

`COc1ccc2[nH]cc(CCN)c2c1` [methyl-5HT, o-methyl-serotonin] registered an EC50 in assay [2] of 72.2 nM.

The record behind these values is paper PMC3894222 (PLoS Pathogens, 2014).
